The COVID Moonshot data (paper PMC11187573), “Identification of SARS-CoV-2 Mpro inhibitors through deep reinforcement learning for de novo drug design and computational chemistry approaches” (RSC Medicinal Chemistry, 2024)

Assays:
[1] = molecular target: SARS-CoV-2 Main Protease (SARS-CoV-2) (UniProt P0DTD1)
[2] = molecular target: SARS-CoV-2 Main Protease (SARS-CoV-2) (UniProt P0DTD1); remark: listed apart in the source

Which inhibition ([1]; 20.0 µM) does the source give for O=C(NCc1ccc2c(c1)OCO2)c1nc(S(=O)(=O)Cc2ccccc2)ncc1Cl here?
Its inhibition is 98.5%.

What about the inhibition ([1]; 50.0 µM) of the same compound?
Its inhibition is 99.8%.

And the IC50 [2]?
Its IC50 is 0.509 µM.

How did the inhibition ([1]; 20.0 µM) turn out when Cc1cc(C)nc(NC2CCN(C(=O)CCl)CC2)n1 was run?
Its inhibition is 46.1%.

What about the inhibition ([1]; 50.0 µM) of the same compound?
Its inhibition is 81.5%.

What about the IC50 [2] of the same compound?
The IC50 was 19.5 µM.

What about the inhibition ([2]; 50.0 µM) of the same compound?
Its inhibition is 100%.

What does the source list for COC(=O)c1c(NCCCc2ccccc2)c2cc(F)ccc2[nH]c1=O?
inhibition ([1]; 20.0 µM): 20.5%; inhibition ([1]; 50.0 µM): 7.56%; IC50 [2]: 68.6 µM

Which results are given for CS(=O)(=O)c1ccc(N2CCNCC2)cc1?
inhibition ([1]; 20.0 µM): -2.52%; inhibition ([1]; 50.0 µM): 5.05%; IC50 [2]: 83.8 µM

What does the source list for CC(NC(=O)CCl)c1cc(F)cc(Cl)c1 (configuration not stated)?
inhibition ([1]; 20.0 µM): 40.6%; inhibition ([1]; 50.0 µM): 74.5%; IC50 [2]: 21 µM; inhibition ([2]; 50.0 µM): 100%

Which inhibition ([1]; 20.0 µM) does the source give for CCOc1ccccc1CN1C(=O)C(=O)c2cc(Br)ccc21 here?
Its inhibition is 0.566%.

And the inhibition ([1]; 50.0 µM)?
The inhibition was 3.64%.

And the IC50 [2]?
The IC50 was 12.4 µM.

And the inhibition ([2]; 50.0 µM)?
Its inhibition is 72.2%.

CN1CCN(C(=O)CNc2c(S(N)(=O)=O)ccc3ccccc23)CC1 was tested. Which inhibition ([1]; 20.0 µM) did it give?
Its inhibition is -0.961%.

What about the inhibition ([1]; 50.0 µM) of the same compound?
Its inhibition is 0.321%.

What about the inhibition ([2]; 50.0 µM) of the same compound?
Its inhibition is 0%.

What does the source list for Cc1cc(S(=O)(=O)c2c([N+](=O)[O-])cc(C(F)(F)F)cc2[N+](=O)[O-])c(Cl)cc1Cl?
inhibition ([1]; 50.0 µM): 9.61%; inhibition ([2]; 50.0 µM): 34.8%

For CO[C@@H]1C[C@@H](COc2cccnc2)N(c2ncccn2)C1 (stereo in doubt), which inhibition ([1]; 20.0 µM) is on record?
Its inhibition is -6.63%.

What about the inhibition ([1]; 50.0 µM) of the same compound?
Its inhibition is -1.19%.

And the inhibition ([2]; 50.0 µM)?
The inhibition was 0%.

Which results are given for C=CC(=O)N1CC(NCc2c[nH]c3ccc(C#N)cc23)C1?
inhibition ([1]; 20.0 µM): -2.15%; inhibition ([1]; 50.0 µM): 15.4%; inhibition ([2]; 50.0 µM): 0%

How did the inhibition ([1]; 20.0 µM) turn out when CNC(=O)c1ccc(CS(=O)(=O)NCC(F)(F)c2ccc(F)cc2F)cc1 was run?
The inhibition was 6.87%.

And the inhibition ([1]; 50.0 µM)?
Its inhibition is 9.79%.

And the inhibition ([2]; 50.0 µM)?
Its inhibition is 0%.

What does the source list for O=C1Nc2ccc(OCCF)cc2C1=O?
inhibition ([1]; 20.0 µM): -6.86%; inhibition ([1]; 50.0 µM): -2.92%; IC50 [2]: 45.2 µM; inhibition ([2]; 50.0 µM): 56.2%

With Cc1ccc2nc(-c3ccc(N)cc3)sc2c1S(=O)(=O)O as the compound, how does the inhibition ([1]; 50.0 µM) read?
Its inhibition is 21.2%.

What about the inhibition ([2]; 50.0 µM) of the same compound?
Its inhibition is 0%.

Which results are given for CC(C)c1nc(CN(C)C(=O)N[C@H](C(=O)N[C@@H](Cc2ccccc2)C[C@H](O)[C@H](Cc2ccccc2)NC(=O)OCc2cncs2)C(C)C)cs1 (stereo in doubt)?
inhibition ([1]; 20.0 µM): 2.31%; inhibition ([1]; 50.0 µM): 6.72%; inhibition ([2]; 20.0 µM): 0%

How did the inhibition ([1]; 20.0 µM) turn out when Cc1ccc(CN2CCC(CNC(=O)Nc3cn(CC(C)C)c(=O)c4ccccc34)C2)cc1 (configuration not stated) was run?
The inhibition was -3.01%.

What about the inhibition ([1]; 50.0 µM) of the same compound?
Its inhibition is 0.927%.

What about the IC50 [2] of the same compound?
Its IC50 is 92.3 µM.

CNC(=O)c1cc(Cl)cc(CC(=O)Nc2cnccc2C)c1 was tested. Which IC50 [1] did it give?
Its IC50 is 51.5 µM.

And the IC50 [2]?
Its IC50 is 43.9 µM.

With C=CC(=O)N(c1ccc(C(C)OC)cc1)C(C(=O)Nc1cccc(CC)c1)c1cccnc1 (configuration not stated) as the compound, how does the inhibition ([1]; 20.0 µM) read?
The inhibition was 36.6%.

What about the inhibition ([1]; 50.0 µM) of the same compound?
Its inhibition is 63.7%.

What about the inhibition ([2]; 20.0 µM) of the same compound?
The inhibition was 4.44%.

Which inhibition ([1]; 20.0 µM) does the source give for O=S(=O)(Cc1noc(C2CC2)n1)Nc1cccnc1 here?
The inhibition was -2.48%.

And the inhibition ([1]; 50.0 µM)?
The inhibition was -1.33%.

What about the inhibition ([2]; 50.0 µM) of the same compound?
The inhibition was 9.43%.

Which inhibition ([1]; 20.0 µM) does the source give for CCCCN(CCCNC(=O)Nc1cn(CC(C)C)c(=O)c2ccccc12)c1ccccc1 here?
The inhibition was -4.26%.

What about the inhibition ([1]; 50.0 µM) of the same compound?
The inhibition was -3.25%.

And the IC50 [2]?
Its IC50 is 82.7 µM.

What does the source list for C#Cc1ncccc1NC(=O)Cc1cccc(Cl)c1?
inhibition ([1]; 20.0 µM): -2.01%; inhibition ([1]; 50.0 µM): 3.62%; inhibition ([2]; 50.0 µM): 7.93%

For COC(=O)c1ccc(-c2cc(Cl)cc(CC(=O)Nc3cnccc3C)c2)c(OC)c1, which IC50 [1] is on record?
Its IC50 is 12.7 µM.

And the IC50 [2]?
Its IC50 is 12 µM.

Which results are given for N#Cc1ccc(CN2C(=O)C(=O)c3cccc(Br)c32)c(F)c1?
inhibition ([1]; 20.0 µM): -1.68%; inhibition ([1]; 50.0 µM): -0.391%; IC50 [2]: 14.3 µM; inhibition ([2]; 50.0 µM): 72.1%

Cc1ccncc1NC(=O)C[C@H](c1ccccc1)N1CCC(O)CC1 (stereo in doubt) was tested. Which inhibition ([1]; 20.0 µM) did it give?
The inhibition was 6.5%.

What about the inhibition ([1]; 50.0 µM) of the same compound?
The inhibition was 34.5%.

What about the IC50 [2] of the same compound?
Its IC50 is 67.5 µM.

What does the source list for O=C(CCl)N1CCN(Cc2cnc(-c3ccccc3)nc2)CC1?
inhibition ([1]; 20.0 µM): 6.18%; inhibition ([1]; 50.0 µM): 15.7%; inhibition ([2]; 50.0 µM): 0%

Which results are given for CC(=O)Oc1ccccc1C(=O)Nc1ncc([N+](=O)[O-])s1?
inhibition ([1]; 50.0 µM): -8.72%; inhibition ([2]; 50.0 µM): 0%

Which results are given for C=CC(=O)N(C(C)COc1cccc(F)c1)C(C(=O)NC(C)(C)C)c1cccnc1 (configuration not stated)?
inhibition ([1]; 20.0 µM): -1.52%; inhibition ([1]; 50.0 µM): -5.54%; inhibition ([2]; 50.0 µM): 0%

COc1ccc(-c2cc(COc3cc(Cl)cc(CC(=O)Nc4cnccc4C)c3)on2)cc1 was tested. Which IC50 [1] did it give?
Its IC50 is 71.5 µM.

What about the IC50 [2] of the same compound?
The IC50 was 13.8 µM.

What about the inhibition ([2]; 50.0 µM) of the same compound?
Its inhibition is 67.3%.

What does the source list for N#C/C(C(=O)Nc1ccc(F)cc1)=C(/O)c1ccc(Cl)cc1?
inhibition ([1]; 50.0 µM): 22.2%; IC50 [2]: 0.234 µM; inhibition ([2]; 50.0 µM): 100%

Which inhibition ([1]; 20.0 µM) does the source give for O=C(Cc1ccsc1)N1CCN(c2cc(-c3cccs3)n[nH]2)CC1 here?
The inhibition was 13.1%.

And the inhibition ([1]; 50.0 µM)?
The inhibition was 42.2%.

What about the IC50 [2] of the same compound?
Its IC50 is 78.2 µM.

Which inhibition ([1]; 20.0 µM) does the source give for C=CC(=O)N(c1ccc(C(F)(F)F)cc1)C(C(=O)Nc1ccc(OC)cc1)c1cccnc1 (configuration not stated) here?
The inhibition was 40.3%.

What about the inhibition ([1]; 50.0 µM) of the same compound?
The inhibition was 60.7%.

What about the inhibition ([2]; 20.0 µM) of the same compound?
Its inhibition is 60%.

With COC(=O)c1cc(Br)cc2c1NC(=O)C2=O as the compound, how does the inhibition ([1]; 20.0 µM) read?
Its inhibition is -5.73%.

What about the inhibition ([1]; 50.0 µM) of the same compound?
The inhibition was -5.38%.

What about the IC50 [2] of the same compound?
The IC50 was 42.3 µM.

And the inhibition ([2]; 50.0 µM)?
Its inhibition is 61.7%.

How did the inhibition ([1]; 20.0 µM) turn out when O=C(NCc1cccnn1)Nc1cccc(-c2ncc3n2CCCC3)c1 was run?
Its inhibition is -2.92%.

What about the inhibition ([1]; 50.0 µM) of the same compound?
The inhibition was -5.29%.

What about the inhibition ([2]; 50.0 µM) of the same compound?
The inhibition was 0%.

For Nc1cncc2c1CCCN2C(=O)Cc1cccc(Cl)c1, which IC50 [1] is on record?
Its IC50 is 32.5 µM.

And the IC50 [2]?
Its IC50 is 54.2 µM.

How did the inhibition ([1]; 20.0 µM) turn out when COc1ccc(-n2cc(CN3CCN(C(=O)CCl)CC3)nn2)cc1 was run?
The inhibition was 10.9%.

And the inhibition ([1]; 50.0 µM)?
Its inhibition is 24.9%.

What about the inhibition ([2]; 50.0 µM) of the same compound?
The inhibition was 24.1%.
